# Where no end group is shown, it is not given here.
# Assays:
# [1] = tested on: differentiated HL60 cells; test: Arachidonic acid (AA) release in [3H]AA-labeled dHL60 cells; type: cell-based, human
# Procedure: (§1) U937 (human histiocytic lymphoma cells), HL60 (human promyelocytic leukemia cells), Raw 264.7 (mouse macrophage), Jurkat (human acute T cell leukemia), PC12 (rat adrenal pheochromocytoma cells), 3Y1 (Rat embryonic fibroblasts), 3T3L1 (preadipocytes), and NCI-H292 (human mucoepidermoid pulmonary carcinoma cells) were obtained from the American Type Culture Collection (Rockville, Md.) and maintained as recommended. FPR- or FPRL1 expressing RBL-2H3 cells were cultured as described previously (He et al. J. Immunol. 2000. 165: 4598-4605). Cells were maintained at about 1×10^6 cells/ml under standard incubator conditions (humidified atmosphere, 95% air, 5% CO2, at 37° C.). HL60 cells were induced to differentiate into the granulocyte phenotype by adding dimethylsulfoxide (DMSO) (final concentration 1.25%, v/v) for 4 days to the culture medium, as described previously (Itoh et al. Blood. 1998. 92: 1432-1441).
# For the initial screening of the PS-SPCLs, we measured the AA release stimulating activity of each peptide pool. Cultured dHL60 cells (10^7 cells/ml) were pre-labeled with 0.5 μCi/ml of (^3H)-AA in RPMI 1640 medium containing 10% FBS for 90 min at 37° C. in a humidified incubator supplied with 95% air and 5% CO2, as described previously (Bae et al. J. Immunol. 2000. 164: 4089-4096). The labeled cells were then washed twice with serum-free RPMI 1640 and incubated in RPMI 1640 medium containing 0.1% fatty acid-free BSA for 15 min at 37° C. After discarding the medium, the cells were stimulated with various concentrations of peptide for the indicated times. Radioactivity in the medium and of collected cells was determined with a liquid scintillation counter. When investigating the effects of inhibitors, cells were preincubated with the indicated concentrations of each inhibitor or vehicle for 15 min prior to stimulation.
# [2] = tested on: differentiated HL60 cells; test: [Ca2+]i increase in fura-2 loaded dHL60 cells; type: cell-based, human
# Procedure: as §1
# (§2) The level of [Ca^2+]i was determined using Grynkiewicz's method using fura-2/AM (Grynkiewicz et al. J. Biol. Chem. 1985. 260: 3440-3550). Briefly, prepared cells were incubated with 3 μM of fura-2/AM at 37° C. for 50 min in serum-free RPMI 1640 medium under continuous stirring. 2×10^6 cells were aliquoted for each assay in Ca^2+ free Locke's solution (154 mM NaCl, 5.6 mM KCl, 1.2 mM MgCl2, 5 mM HEPES, pH 7.3, 10 mM glucose, and 0.2 mM EGTA). Fluorescence changes were measured at the dual excitation wavelength of 340 nm and 380 nm, and the calculated fluorescence ratio was translated into [Ca^2+]i.
# [3] = tested on: human neutrophils; test: Superoxide generation (cytochrome c reduction) in human neutrophils; type: cell-based; settings: 1 μM of peptide, cytochrome c reduction
# Procedure: Peripheral blood leukocyte concentrates were donated by the Ulsan Red Cross Blood Center (Ulsan, Korea). PBMCs were separated on a Histopaque-1077 gradient. After two washings with HBSS without Ca^2+ and Mg^2+, the PBMCs were suspended in 10% FBS containing RPMI and incubated for 60 min at 37° C. to let the monocytes attach to the culture dish. Cells were washed 5 times with warmed RPMI medium to remove lymphocytes, and then the attached monocytes were collected, as described previously (Bae et al. J. Leukoc. Biol. 1999. 65: 241-248). Human neutrophils were isolated according to standard procedures; i.e., dextran sedimentation, hypotonic lysis of erythrocytes, and using a medium lymphocyte separation gradient, as described previously (Seo et al. J. Immunol. 1997. 158: 1895-1901). Isolated human leukocytes were then used promptly.
# We determined superoxide anion generation by measuring cytochrome c reduction using a microtiter 96 well plate ELISA reader (Bio-Tekinstruments, EL312e, Winooski, Vt.) as described previously (Bae et al. Blood. 2001. 97: 2854-2862). Human neutrophils (1×10^6 cells/100 μl of RPMI 1640 medium per well of a 96-well plate) were preincubated with 50 μM of cytochrome c at 37° C. for 1 min and then incubated with the indicated peptide concentrations. Superoxide generation was determined from change in light absorption at 550 nm over 5 minutes at 1 min intervals.
# [4] = molecular target: T1, FPRL1 (Homo sapiens, UniProt P25090); test: [Ca2+]i increase in FPRL1-expressing RBL-2H3 cells; type: cell-based; settings: 10 μM of each peptide (FIG. 7)
# T1 construct: expressed in transfected cells; host or cells: RBL-2H3
# T1 sequence (P25090 1-351): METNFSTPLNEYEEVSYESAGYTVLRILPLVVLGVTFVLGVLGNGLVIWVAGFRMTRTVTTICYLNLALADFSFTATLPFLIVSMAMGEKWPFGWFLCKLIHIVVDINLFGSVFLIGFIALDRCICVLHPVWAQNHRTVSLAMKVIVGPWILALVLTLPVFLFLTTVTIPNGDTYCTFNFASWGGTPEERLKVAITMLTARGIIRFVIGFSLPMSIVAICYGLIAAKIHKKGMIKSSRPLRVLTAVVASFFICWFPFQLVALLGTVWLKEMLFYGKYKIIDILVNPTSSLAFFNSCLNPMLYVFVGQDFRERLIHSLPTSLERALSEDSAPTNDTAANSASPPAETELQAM
# Procedure: as §1, §2
# [5] = molecular target: T2, FPR (Homo sapiens, UniProt P21462); test: [Ca2+]i increase in FPR-expressing RBL-2H3 cells; type: cell-based; settings: data not shown
# T2 construct: expressed in transfected cells; host or cells: RBL-2H3
# T2 sequence (P21462 1-350): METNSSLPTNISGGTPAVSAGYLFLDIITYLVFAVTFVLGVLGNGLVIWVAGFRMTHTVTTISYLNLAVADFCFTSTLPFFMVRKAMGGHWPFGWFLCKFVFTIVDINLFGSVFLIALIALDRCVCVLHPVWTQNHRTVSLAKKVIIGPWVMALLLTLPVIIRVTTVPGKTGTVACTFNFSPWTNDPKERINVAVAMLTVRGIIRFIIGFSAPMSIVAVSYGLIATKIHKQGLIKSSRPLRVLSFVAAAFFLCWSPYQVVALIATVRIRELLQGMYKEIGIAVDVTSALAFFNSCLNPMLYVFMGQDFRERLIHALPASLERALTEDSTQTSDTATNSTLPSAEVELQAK
# Procedure: as §1, §2
# [6] = tested on: undifferentiated HL60 cells; test: [Ca2+]i increase in undifferentiated HL60 cells; type: cell-based, human
# Procedure: as §1, §2
# [7] = tested on: ERK; test: ERK phosphorylation in dHL60 cells (anti-phospho-ERK immunoblot); type: cell-based, human
# Procedure: Each sample (30 μg of protein) was subjected to 8% SDS-PAGE, and phosphorylated ERK was quantified by immunoblot analysis with anti-phospho-ERK antibody. The results shown are from a single experiment representative of at least three independent experiments.
# Extracellular signal regulated protein kinase (ERK) is a well-known intracellular enzyme that mediates diverse cellular responses (Sugden et al. Cell Signal. 1997. 9: 337-351). […] To compare the intracellular signaling involving these 4 peptides, dHL60 cells were pretreated either with LY294002 (50 μM), GF109203X (5 μM), or PD98059 (50 μM) or left untreated as a control. After being incubated for the indicated periods (15 minutes for LY294002 and GF109203X, 60 minutes for PD98059), the cells were stimulated with 1 μM of each peptide for 5 minutes.
# [8] = tested on: human neutrophils; test: Chemotaxis assay (modified Boyden chamber), neutrophils; type: cell-based; settings: concentrations less than 10 μM
# Procedure: (§3) FIGS. 6A and 6B show chemotactic effect of peptides. Assays were performed using a modified Boyden chamber assay, as described in the Examples. Isolated human neutrophils (A) or monocytes (B) (1×10^6 cells/ml in serum free RPMI) were added to the upper wells of a 96-well chemotaxis chamber and migration across a 3 μm pore size (5 μm for monocytes) polycarbonate membrane was assessed after 2 hrs incubation at 37° C. The numbers of migrated cells were determined by counting them in a high power field (400×). Results are presented as means±S.E. of three independent experiments each performed in duplicate.
# Chemotaxis assays were performed using multiwell chambers (Neuroprobe Inc., Gaithersburg, Md.) (Bae et al. Blood. 2001. 97: 2854-2862). Briefly, prepared human monocytes were suspended in RPMI at a concentration of 1×10^6 cells/ml, and 25 μl of the suspension was then placed onto the upper well of a chamber separated by a 5 μm polyhydrocarbon filter (3 μm pores size not polyvinylpyrrolidone coated, as is needed for neutrophils) from peptides or N-formyl-methionyl-leucyl-phenylalanine (fMLF) in the lower well. […] Stained cells were counted in five randomly chosen high power fields (HPF) (400×) (Bae et al. Blood. 2001. 97: 2854-2862).
# [9] = tested on: human monocytes; test: Chemotaxis assay (modified Boyden chamber), monocytes; type: cell-based; settings: FIG. 6B; control peptide at concentrations less than 10 μM
# Procedure: as §3
# Chemotaxis assays were performed using multiwell chambers (Neuroprobe Inc., Gaithersburg, Md.) (Bae et al. Blood. 2001. 97: 2854-2862). Briefly, prepared human monocytes were suspended in RPMI at a concentration of 1×10^6 cells/ml, and 25 μl of the suspension was then placed onto the upper well of a chamber separated by a 5 μm polyhydrocarbon filter (3 μm pores size not polyvinylpyrrolidone coated, as is needed for neutrophils) from peptides or N-formyl-methionyl-leucyl-phenylalanine (fMLF) in the lower well. After incubation for 2 hours (90 minutes for neutrophils) at 37° C., non-migrated cells were removed by scraping, and cells that migrated across the filter were dehydrated, fixed, and stained with hematoxylin (Sigma, St. Louis, Mo.). Stained cells were counted in five randomly chosen high power fields (HPF) (400×) (Bae et al. Blood. 2001. 97: 2854-2862).
Substance,"AA release stimulating activity (in words) ([1]; dHL60 cells, 10 μM)","Effect of cPLA2-specific inhibitors AACOCF3 and MAFP on peptide-induced AA release ([1]; dHL60 cells, inhibitor pretreatment 15 min, 1 μM peptide)","Folds of increase (% of total), arachidonic acid release ([1]; differentiated HL60 cells, 10 μM of peptide)","Concentration of maximal activity, [Ca^2+]i increase ([2]; dHL60 cells, data not shown)","[Ca^2+]i ([2]; differentiated HL60 cells, fura-2, 1 μM of peptide)",Superoxide production [3],[Ca^2+]i increase in FPRL1-expressing RBL-2H3 cells [4],[Ca^2+]i in FPR-expressing RBL-2H3 cells / ligand for FPR [5],[Ca^2+]i increase in undifferentiated HL60 cells ([6]; peptides 10 μM (FIG. 8)),"Effect of PTX on peptide-stimulated calcium signaling ([6]; undifferentiated HL60 cells, data not shown)",Phosphorylation level of ERK ([7]; dHL60 cells (FIG. 9)),"Effect of GF109203X (PKC) on peptide-induced ERK phosphorylation ([7]; dHL60 cells, GF109203X (5 μM) 15 minutes, 1 μM peptide 5 minutes)","Effect of LY294002 (PI3K) on peptide-induced ERK phosphorylation ([7]; dHL60 cells, LY294002 (50 μM) 15 minutes, 1 μM peptide 5 minutes)","Effect of PD98059 (MEK) on peptide-induced ERK phosphorylation ([7]; dHL60 cells, PD98059 (50 μM) 60 minutes, 1 μM peptide 5 minutes)","Time of maximal ERK activation after stimulation ([7]; dHL60 cells, data not shown)",Cellular chemotaxis in neutrophils (in words) [8],Cellular chemotaxis in human monocytes (in words) [9]
RKYYYM-NH2 [Peptide P18],most potent,blocked,2.61 ± 0.295 folds,approximately 3 μM,150 ± 14.5 nM,28.4 ± 3.21 nmole/10^6 cells,induced calcium increase,not for FPR,dramatically induced,partially inhibited,dramatic increase,completely blocked,not by LY294002,partially blocked,5 min,–,–
LFMYHP [reference compound],–,–,–,–,–,–,not to be able to induce calcium increase,–,–,–,–,–,–,–,–,did not induce,did not induce
